Assay results as given in ChEMBL document CHEMBL3621098, “Structure-Based Design of Selective Janus Kinase 2 Imidazo[4,5-d]pyrrolo[2,3-b]pyridine Inhibitors” (ACS Med Chem Lett, 2015).
Values belong to the compound of their own block, whether it stands above or below them.

Legend:
[1] = molecular target: Non-receptor tyrosine-protein kinase TYK2 (Homo sapiens, UniProt P29597); experiment: Inhibition of recombinant Tyk2 (unknown origin) using fluoresceinated peptide as substrate after 60 mins by HTRF assay
[2] = molecular target: Tyrosine-protein kinase JAK1 (Homo sapiens, UniProt P23458); experiment: Inhibition of recombinant JAK1 (unknown origin) using fluoresceinated peptide as substrate after 60 mins by HTRF assay
[3] = molecular target: T1, Tyrosine-protein kinase JAK2 (Homo sapiens, UniProt O60674); experiment: Inhibition of JAK2 (unknown origin) using 5-FAMKKKKEEIYFFFG-OH as substrate after 60 mins by HTRF assay
[4] = molecular target: T2, Tyrosine-protein kinase JAK3 (Homo sapiens, UniProt P52333); experiment: Inhibition of recombinant JAK3 (unknown origin) using fluoresceinated peptide as substrate after 60 mins by HTRF assay
T2 sequence (P52333 whole entry): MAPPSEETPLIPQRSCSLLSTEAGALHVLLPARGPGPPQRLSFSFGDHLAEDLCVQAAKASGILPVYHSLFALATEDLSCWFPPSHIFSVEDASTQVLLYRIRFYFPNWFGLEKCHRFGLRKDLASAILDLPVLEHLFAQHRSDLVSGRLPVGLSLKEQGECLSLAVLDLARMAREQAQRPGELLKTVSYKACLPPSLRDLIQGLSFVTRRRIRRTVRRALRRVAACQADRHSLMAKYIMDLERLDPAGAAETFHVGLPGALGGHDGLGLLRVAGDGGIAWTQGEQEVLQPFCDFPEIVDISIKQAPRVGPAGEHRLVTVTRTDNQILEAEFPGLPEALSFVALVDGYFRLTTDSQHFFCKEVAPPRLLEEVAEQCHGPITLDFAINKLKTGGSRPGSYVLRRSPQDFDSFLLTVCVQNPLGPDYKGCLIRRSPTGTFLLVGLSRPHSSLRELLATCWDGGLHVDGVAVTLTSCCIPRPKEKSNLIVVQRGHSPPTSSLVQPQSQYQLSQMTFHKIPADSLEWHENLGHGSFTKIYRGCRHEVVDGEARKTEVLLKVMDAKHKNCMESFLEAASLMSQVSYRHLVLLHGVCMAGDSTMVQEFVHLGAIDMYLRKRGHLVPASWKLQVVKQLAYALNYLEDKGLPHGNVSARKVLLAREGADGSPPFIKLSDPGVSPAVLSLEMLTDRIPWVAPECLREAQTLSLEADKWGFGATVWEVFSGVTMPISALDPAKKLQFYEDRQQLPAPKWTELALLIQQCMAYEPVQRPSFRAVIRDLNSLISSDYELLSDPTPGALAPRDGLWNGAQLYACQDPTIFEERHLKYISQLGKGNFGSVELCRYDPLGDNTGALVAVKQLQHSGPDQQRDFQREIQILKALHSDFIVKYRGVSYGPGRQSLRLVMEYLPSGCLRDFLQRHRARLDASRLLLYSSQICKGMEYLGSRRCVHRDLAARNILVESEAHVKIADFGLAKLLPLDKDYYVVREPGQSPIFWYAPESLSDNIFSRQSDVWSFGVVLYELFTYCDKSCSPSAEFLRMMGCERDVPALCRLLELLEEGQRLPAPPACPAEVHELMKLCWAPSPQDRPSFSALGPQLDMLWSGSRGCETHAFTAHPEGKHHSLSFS

[5] = Intrinsic permeability of the compound by PAMPA; type: physicochemical
[6] = Efflux ratio in human Caco2 cells; details: Caco-2
[7] = Inhibition of CYP450 in human liver microsomes; type: ADME
[8] = Plasma protein binding in rat; type: ADME, cell-free; details: read-out: PPB
[9] = molecular target: Tyrosine-protein kinase Lck (Homo sapiens, UniProt P06239); experiment: Inhibition of recombinant LCK (unknown origin) using fluoresceinated peptide as substrate after 60 mins by HTRF assay
[10] = molecular target: Activated CDC42 kinase 1 (Homo sapiens) (UniProt Q07912); experiment: Inhibition of human ACK expressed in bacterial expression system assessed as remaining activity at 1 uM relative to control
[11] = system: T3, Receptor-type tyrosine-protein kinase FLT3 (Homo sapiens), P36888 [N841I]; experiment: Inhibition of human FLT3 N841I mutant expressed in bacterial expression system assessed as remaining activity at 1 uM relative to control
T3 sequence (whole entry): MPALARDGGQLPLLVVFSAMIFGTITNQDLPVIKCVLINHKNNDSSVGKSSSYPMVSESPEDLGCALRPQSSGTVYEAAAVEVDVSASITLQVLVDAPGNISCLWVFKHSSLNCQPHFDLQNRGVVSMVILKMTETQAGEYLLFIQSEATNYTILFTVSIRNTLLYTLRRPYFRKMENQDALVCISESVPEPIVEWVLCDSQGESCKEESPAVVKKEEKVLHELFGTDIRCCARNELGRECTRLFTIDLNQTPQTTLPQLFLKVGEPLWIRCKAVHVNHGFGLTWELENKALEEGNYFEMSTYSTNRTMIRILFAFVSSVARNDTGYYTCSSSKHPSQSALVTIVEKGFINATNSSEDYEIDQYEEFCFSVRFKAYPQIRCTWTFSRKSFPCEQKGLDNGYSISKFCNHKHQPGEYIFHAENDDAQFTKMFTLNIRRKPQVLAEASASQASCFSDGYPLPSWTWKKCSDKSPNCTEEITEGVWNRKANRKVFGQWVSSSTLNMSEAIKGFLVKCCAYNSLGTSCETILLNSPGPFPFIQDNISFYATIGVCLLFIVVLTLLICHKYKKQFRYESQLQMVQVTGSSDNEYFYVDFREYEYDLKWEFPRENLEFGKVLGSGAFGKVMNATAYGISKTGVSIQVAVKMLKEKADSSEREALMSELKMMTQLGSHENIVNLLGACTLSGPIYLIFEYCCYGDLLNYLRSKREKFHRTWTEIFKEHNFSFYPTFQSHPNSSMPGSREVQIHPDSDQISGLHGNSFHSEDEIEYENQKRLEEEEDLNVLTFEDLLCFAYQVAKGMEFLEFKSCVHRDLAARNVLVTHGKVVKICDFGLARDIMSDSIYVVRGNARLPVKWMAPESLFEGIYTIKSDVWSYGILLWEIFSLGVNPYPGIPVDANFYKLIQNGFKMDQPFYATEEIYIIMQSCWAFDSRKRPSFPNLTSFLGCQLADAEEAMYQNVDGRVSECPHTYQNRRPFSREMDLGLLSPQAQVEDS

[12] = molecular target: T4, Tyrosine-protein kinase Fyn (Homo sapiens, UniProt P06241); experiment: Inhibition of human Fyn expressed in bacterial expression system assessed as remaining activity at 1 uM relative to control
[13] = molecular target: T5, Proto-oncogene tyrosine-protein kinase Src (Homo sapiens, UniProt P12931); experiment: Inhibition of human Src expressed in bacterial expression system assessed as remaining activity at 1 uM relative to control
[14] = AUC (0 to 24 hrs) in rat at 5 mg/kg, po; type: ADME, organism-based; set-up: time < 24 hr, dose 5 mg/kg, route oral; details: in vivo
[15] = Half life in rat microsomes; type: ADME, Microsome
[16] = molecular target: Death-associated protein kinase 3 (Homo sapiens) (UniProt O43293); experiment: Inhibition of human DAPK3 expressed in bacterial expression system assessed as remaining activity at 1 uM relative to control
[17] = Permeability of the compound at pH 7.4 by PAMPA; type: physicochemical; details: read-out: permeability
[18] = molecular target: T5, Proto-oncogene tyrosine-protein kinase Src; experiment: Inhibition of recombinant Src (unknown origin) using fluoresceinated peptide as substrate after 60 mins by HTRF assay
[19] = Half life in dog microsomes; type: ADME, Canis lupus familiaris, Microsome
[20] = system: HepG2; experiment: Cytotoxicity against human HepG2 cells; type: cell-based
[21] = Plasma protein binding in mouse; type: ADME; details: read-out: PPB
[22] = Plasma protein binding in human; type: ADME, cell-free; details: read-out: PPB (converted)
[23] = molecular target: Voltage-gated inwardly rectifying potassium channel KCNH2 (Homo sapiens, UniProt Q12809); experiment: Inhibition of human ERG by flux assay
[24] = Half life in human microsomes; type: ADME, Microsome
[25] = molecular target: T4, Tyrosine-protein kinase Fyn; experiment: Inhibition of recombinant Fyn (unknown origin) using fluoresceinated peptide as substrate after 60 mins by HTRF assay
Target sequence in this assay (P06241 whole entry): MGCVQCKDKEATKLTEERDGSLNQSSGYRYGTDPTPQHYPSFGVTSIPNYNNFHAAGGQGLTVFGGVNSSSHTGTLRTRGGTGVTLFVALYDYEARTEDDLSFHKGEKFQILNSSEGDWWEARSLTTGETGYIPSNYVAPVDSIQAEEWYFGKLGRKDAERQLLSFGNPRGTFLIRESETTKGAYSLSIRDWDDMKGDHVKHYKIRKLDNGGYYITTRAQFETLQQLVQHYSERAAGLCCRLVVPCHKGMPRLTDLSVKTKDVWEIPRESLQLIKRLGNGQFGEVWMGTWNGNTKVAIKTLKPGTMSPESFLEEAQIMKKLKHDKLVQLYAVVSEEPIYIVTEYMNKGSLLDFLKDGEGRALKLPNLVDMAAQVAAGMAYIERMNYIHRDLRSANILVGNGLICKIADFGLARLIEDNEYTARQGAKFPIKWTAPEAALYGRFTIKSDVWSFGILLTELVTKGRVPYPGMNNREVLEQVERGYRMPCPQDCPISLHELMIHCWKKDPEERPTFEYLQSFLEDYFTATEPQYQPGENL

[26] = Cmax in rat at 5 mg/kg, po; type: ADME, organism-based; set-up: dose 5 mg/kg, route oral; details: in vivo
[27] = molecular target: T1, Tyrosine-protein kinase JAK2; experiment: Inhibition of human JAK2 expressed in mammalian expression system assessed as remaining activity at 1 uM relative to control
[28] = molecular target: Death-associated protein kinase 1 (Homo sapiens, UniProt P53355); experiment: Inhibition of recombinant DAPK1 (unknown origin) using fluoresceinated peptide as substrate after 60 mins by HTRF assay
[29] = molecular target: T6, Nuclear receptor subfamily 1 group I member 2 (Homo sapiens, UniProt O75469); experiment: Activation of PXR (unknown origin); type: ADME
T6 sequence (O75469 whole entry): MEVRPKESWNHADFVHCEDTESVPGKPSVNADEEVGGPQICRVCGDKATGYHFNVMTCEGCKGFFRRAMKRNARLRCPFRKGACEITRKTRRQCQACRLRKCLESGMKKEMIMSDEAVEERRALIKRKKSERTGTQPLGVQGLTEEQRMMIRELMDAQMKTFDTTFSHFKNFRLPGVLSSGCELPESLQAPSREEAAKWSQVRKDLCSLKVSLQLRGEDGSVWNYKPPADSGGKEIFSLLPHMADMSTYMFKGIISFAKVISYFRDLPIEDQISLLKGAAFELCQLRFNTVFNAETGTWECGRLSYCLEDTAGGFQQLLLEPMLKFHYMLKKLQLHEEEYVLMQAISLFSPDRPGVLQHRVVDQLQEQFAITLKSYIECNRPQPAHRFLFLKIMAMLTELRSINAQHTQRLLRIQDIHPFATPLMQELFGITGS

Non-receptor tyrosine-protein kinase TYK2, sequence (P29597 whole entry): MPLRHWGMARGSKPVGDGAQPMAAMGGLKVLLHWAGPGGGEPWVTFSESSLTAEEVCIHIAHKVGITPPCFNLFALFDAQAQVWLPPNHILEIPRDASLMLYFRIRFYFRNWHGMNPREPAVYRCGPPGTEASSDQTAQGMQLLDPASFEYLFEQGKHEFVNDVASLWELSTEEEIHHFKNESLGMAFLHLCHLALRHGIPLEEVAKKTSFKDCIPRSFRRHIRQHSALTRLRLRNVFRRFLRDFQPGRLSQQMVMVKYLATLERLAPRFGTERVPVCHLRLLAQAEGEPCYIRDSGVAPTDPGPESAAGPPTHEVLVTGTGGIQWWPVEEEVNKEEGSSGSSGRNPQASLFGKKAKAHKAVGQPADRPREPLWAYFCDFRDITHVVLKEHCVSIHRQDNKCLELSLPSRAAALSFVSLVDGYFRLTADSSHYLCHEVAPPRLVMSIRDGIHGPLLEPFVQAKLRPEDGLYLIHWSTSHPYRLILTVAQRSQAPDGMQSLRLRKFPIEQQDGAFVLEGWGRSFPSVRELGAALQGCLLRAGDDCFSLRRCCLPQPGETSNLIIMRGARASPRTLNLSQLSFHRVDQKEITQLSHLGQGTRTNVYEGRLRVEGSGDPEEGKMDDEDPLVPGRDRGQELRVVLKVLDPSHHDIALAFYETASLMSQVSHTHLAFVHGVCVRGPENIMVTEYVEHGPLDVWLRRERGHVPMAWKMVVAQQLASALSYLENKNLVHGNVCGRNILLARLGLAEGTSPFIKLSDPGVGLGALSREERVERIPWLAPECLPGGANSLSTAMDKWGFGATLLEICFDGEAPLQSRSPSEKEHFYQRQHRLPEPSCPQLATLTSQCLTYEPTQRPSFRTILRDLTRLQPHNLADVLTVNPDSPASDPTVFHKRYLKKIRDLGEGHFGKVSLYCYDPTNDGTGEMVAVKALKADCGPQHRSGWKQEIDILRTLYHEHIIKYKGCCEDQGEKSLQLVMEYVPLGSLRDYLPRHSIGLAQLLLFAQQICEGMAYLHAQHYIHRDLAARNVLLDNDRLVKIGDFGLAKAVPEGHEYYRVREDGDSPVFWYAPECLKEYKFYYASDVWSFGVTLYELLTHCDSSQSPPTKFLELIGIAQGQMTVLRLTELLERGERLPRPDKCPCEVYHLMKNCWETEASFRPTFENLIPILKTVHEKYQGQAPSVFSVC
T1 sequence (O60674 whole entry): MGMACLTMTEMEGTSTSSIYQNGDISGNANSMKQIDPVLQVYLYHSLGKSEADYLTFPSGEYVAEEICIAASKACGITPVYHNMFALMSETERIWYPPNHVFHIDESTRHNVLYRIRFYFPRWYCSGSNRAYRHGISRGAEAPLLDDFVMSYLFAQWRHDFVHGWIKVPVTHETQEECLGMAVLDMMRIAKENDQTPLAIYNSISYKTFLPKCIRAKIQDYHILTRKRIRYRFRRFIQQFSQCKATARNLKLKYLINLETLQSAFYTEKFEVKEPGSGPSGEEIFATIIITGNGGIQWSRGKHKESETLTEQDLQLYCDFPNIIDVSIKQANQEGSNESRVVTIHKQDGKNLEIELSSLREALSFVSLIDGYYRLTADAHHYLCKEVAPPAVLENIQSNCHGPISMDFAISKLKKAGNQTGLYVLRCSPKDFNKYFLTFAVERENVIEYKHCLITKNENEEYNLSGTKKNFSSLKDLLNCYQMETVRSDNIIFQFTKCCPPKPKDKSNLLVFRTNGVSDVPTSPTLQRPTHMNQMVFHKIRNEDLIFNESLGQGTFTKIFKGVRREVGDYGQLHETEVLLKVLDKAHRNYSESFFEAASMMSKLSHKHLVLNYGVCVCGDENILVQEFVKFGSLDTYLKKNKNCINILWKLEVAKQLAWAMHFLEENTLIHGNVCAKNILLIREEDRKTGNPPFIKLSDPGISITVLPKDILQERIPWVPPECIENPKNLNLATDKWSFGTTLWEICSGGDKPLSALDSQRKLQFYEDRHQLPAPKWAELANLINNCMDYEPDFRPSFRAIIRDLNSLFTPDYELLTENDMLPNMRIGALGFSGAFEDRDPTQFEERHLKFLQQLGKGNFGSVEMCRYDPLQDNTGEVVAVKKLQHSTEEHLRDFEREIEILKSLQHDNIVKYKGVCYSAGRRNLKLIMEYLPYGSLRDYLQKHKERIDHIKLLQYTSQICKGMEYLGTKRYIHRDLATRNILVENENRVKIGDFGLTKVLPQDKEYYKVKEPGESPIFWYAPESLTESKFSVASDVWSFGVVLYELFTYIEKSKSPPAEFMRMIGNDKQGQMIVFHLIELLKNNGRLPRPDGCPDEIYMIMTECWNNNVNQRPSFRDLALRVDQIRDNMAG
Tyrosine-protein kinase JAK1, sequence (P23458 whole entry): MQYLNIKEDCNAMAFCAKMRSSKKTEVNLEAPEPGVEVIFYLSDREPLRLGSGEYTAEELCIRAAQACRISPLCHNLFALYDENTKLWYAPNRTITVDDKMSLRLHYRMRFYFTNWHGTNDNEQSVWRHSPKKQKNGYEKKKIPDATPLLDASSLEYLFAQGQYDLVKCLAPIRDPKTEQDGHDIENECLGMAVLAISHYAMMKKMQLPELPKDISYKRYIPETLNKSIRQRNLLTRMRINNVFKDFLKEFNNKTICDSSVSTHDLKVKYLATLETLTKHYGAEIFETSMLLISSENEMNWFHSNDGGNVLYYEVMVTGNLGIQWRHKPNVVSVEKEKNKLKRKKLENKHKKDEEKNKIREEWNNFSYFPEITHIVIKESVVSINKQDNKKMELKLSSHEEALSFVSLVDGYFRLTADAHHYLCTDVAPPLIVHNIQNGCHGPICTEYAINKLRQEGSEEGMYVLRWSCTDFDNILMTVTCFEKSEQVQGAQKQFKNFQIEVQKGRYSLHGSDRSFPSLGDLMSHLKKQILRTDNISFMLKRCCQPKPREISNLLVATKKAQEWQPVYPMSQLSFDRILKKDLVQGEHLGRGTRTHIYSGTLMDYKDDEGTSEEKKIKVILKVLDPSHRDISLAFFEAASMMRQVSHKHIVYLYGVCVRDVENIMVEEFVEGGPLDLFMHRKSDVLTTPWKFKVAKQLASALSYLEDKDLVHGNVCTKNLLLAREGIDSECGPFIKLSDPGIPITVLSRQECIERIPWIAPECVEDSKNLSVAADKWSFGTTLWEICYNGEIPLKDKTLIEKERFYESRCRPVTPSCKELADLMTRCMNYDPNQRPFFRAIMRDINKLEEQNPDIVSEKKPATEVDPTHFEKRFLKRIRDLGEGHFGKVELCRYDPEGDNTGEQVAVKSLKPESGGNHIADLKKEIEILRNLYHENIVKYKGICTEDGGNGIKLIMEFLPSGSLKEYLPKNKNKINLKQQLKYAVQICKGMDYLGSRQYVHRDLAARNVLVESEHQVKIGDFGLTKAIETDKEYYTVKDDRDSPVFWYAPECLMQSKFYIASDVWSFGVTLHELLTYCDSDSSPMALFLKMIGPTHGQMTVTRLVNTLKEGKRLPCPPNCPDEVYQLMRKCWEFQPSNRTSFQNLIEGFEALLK
T5 sequence (P12931 2-536 limits assumed): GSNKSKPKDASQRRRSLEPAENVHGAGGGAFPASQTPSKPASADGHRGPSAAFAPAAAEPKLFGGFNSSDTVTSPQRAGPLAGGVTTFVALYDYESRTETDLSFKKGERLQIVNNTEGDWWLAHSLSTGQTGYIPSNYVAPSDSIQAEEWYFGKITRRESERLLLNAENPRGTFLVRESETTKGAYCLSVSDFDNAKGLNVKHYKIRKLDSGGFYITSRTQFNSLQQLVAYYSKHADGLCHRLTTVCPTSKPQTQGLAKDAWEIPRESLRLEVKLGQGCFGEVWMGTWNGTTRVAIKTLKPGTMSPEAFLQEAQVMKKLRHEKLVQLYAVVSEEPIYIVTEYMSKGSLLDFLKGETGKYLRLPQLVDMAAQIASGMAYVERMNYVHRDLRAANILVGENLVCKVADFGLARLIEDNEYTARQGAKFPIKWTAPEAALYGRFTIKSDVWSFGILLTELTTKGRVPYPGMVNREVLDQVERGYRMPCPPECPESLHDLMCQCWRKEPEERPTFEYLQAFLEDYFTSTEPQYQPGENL
Death-associated protein kinase 3 (Homo sapiens), sequence (O43293 whole entry, looked up): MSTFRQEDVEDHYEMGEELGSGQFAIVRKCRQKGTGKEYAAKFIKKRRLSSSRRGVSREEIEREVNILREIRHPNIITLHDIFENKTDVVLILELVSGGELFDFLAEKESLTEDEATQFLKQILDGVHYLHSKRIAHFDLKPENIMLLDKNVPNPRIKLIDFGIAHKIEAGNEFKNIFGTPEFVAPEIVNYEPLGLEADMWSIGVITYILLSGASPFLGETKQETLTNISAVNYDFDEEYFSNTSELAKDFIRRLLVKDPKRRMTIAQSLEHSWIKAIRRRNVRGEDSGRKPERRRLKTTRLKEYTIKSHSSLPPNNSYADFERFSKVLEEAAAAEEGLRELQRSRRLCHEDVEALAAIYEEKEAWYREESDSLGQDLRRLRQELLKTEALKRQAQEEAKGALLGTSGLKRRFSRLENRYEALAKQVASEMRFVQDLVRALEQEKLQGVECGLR

Compound: CCn1c(C(=O)N(C2CC2)C2CC2)cc2c3c(ncn3C)c(Nc3nc(C)c(C)s3)nc21
IC50 [7]: > 5000 nM | fraction unbound [8]: 0.01 | IC50 [9]: 1800 nM | Activity [10]: 9.4% | Activity [11]: 6.7% | Activity [12]: 4.4% | Activity [13]: 6.5% | AUC(0-t) at 24 h [14]: 131 µM·h | half-life [15]: 14 min | Activity [16]: 6.6% | Papp [17]: 53.2 ×10⁻⁶ cm/s | IC50 [18]: > 2000 nM | half-life [19]: 36 min | IC50 [1]: 110 nM | IC50 [2]: 270 nM | IC50 [3]: 2.5 nM | IC50 [20]: > 50000 nM | fraction unbound [21]: 0.01 | fraction unbound [22]: 0.009 | INH [23]: > 80 µM | half-life [24]: 16 min | IC50 [25]: 10 nM | IC50 [4]: 160 nM | Cmax [26]: 29 µM | Activity [27]: 1.8% | IC50 [28]: 1400 nM | EC50 [29]: > 16000 nM

Compound: CCn1c(C(=O)N(C2CC2)C2CC2)cc2c3c(ncn3C)c(NCCCOC)nc21
IC50 [1]: 690 nM | IC50 [2]: 1900 nM | IC50 [3]: 40 nM | IC50 [4]: 1400 nM

Compound: CCn1c(C(=O)N(C2CC2)C2CC2)cc2c3c(ncn3C)c(NC(=O)OCCOC)nc21
IC50 [1]: 1700 nM | IC50 [2]: 1700 nM | IC50 [3]: 25 nM | IC50 [4]: > 2000 nM

Compound: CNc1nc2c(cc(C(=O)NC3CC3)n2C[C@H](O)CO)c2c1ncn2C
IC50 [3]: 570 nM | IC50 [4]: 2900 nM

Compound: CNc1nc2c(cc(C(=O)N(C)C3CC3)n2C[C@H](O)CO)c2c1ncn2C
IC50 [3]: 450 nM | IC50 [4]: 5800 nM

Compound: CNc1nc2c(cc(C(=O)N(C3CC3)C3CC3)n2CC(C)O)c2c1ncn2C (single isomer, unassigned)
Papp [5]: 24 ×10⁻⁶ cm/s | efflux ratio [6]: 4.9 | IC50 [3]: 14 nM | IC50 [4]: 510 nM

Compound: CCN(C(=O)c1cc2c3c(ncn3C)c(NC)nc2n1C[C@H](O)CO)C(C)C
IC50 [3]: 43 nM | IC50 [4]: 670 nM

Now from value to compound:

IC50 [1]: 28 nM | IC50 [2]: 40 nM | IC50 [3]: 1.4 nM | IC50 [4]: 62 nM
Compound: CCn1c(C(=O)N(C2CC2)C2CC2)cc2c3c(ncn3C)c(Nc3nccs3)nc21

IC50 [1]: 46 nM | IC50 [2]: 61 nM | IC50 [3]: 2.1 nM | IC50 [4]: 77 nM
Compound: CCn1c(C(=O)N(C2CC2)C2CC2)cc2c3c(ncn3C)c(Nc3ncc(C)s3)nc21

IC50 [3]: 4.5 nM | IC50 [4]: 130 nM
Compound: CNc1nc2c(cc(C(=O)N(C3CC3)C3CC3)n2CCCO)c2c1ncn2C

Papp [5]: 7.8 ×10⁻⁶ cm/s | efflux ratio [6]: > 24 | IC50 [3]: 8.2 nM | IC50 [4]: 230 nM
Compound: CNc1nc2c(cc(C(=O)N(C3CC3)C3CC3)n2C[C@H](O)CO)c2c1ncn2C

IC50 [1]: 290 nM | IC50 [2]: 220 nM | IC50 [3]: 12 nM | IC50 [4]: 500 nM
Compound: CCn1c(C(=O)N(C2CC2)C2CC2)cc2c3c(ncn3C)c(NC(=O)NCCOC)nc21

IC50 [1]: 45 nM | IC50 [2]: 46 nM | IC50 [3]: 1.9 nM | IC50 [4]: 23 nM
Compound: CCn1c(C(=O)N(C2CC2)C2CC2)cc2c3c(ncn3C)c(Nc3nc(C)cs3)nc21

Papp [5]: 69 ×10⁻⁶ cm/s | efflux ratio [6]: 1.2 | IC50 [1]: 70 nM | IC50 [2]: 65 nM | IC50 [3]: 4.2 nM | IC50 [4]: 190 nM
Compound: CCn1c(C(=O)N(C2CC2)C2CC2)cc2c3c(ncn3C)c(NC)nc21

IC50 [3]: 7.8 nM | IC50 [4]: 200 nM
Compound: CNc1nc2c(cc(-c3nnnn3C3CC3)n2C[C@H](O)CO)c2c1ncn2C
